# Assay results reported in patent US8236958B2, “Polymorphic forms of a GABAA agonist” (H. Lundbeck A/S, priority 2004, dated 2012).
# Assays:
# [1] = relative thermodynamic stability of crystalline forms; assay type: physicochemical; conditions: comparison of form II with form I of the same hydration state
# Method: (§1) (The anhydrate of form I reverts to the monohydrate at 25° C./70% RH, while the anhydrate of form II reverts to the monohydrate at 25° C./90% RH).
# [2] = thermal decomposition studies; assay type: physicochemical; conditions: based on thermal decomposition studies; monohydrate form II vs anhydrous form II
# [3] = reversion of anhydrate to monohydrate under humidity; assay type: physicochemical; conditions: 25° C.
# Method: as §1
# [4] = target: GABAA receptors comprising α4 and δ subunits (Homo sapiens, UniProt O14764+P28472+P48169); conditions: Brown et al, British J. Pharmacol., 136, 965-74 (2002); cited from earlier work
# GABAA receptors comprising α4 and δ subunits, sequence (P48169 36-554): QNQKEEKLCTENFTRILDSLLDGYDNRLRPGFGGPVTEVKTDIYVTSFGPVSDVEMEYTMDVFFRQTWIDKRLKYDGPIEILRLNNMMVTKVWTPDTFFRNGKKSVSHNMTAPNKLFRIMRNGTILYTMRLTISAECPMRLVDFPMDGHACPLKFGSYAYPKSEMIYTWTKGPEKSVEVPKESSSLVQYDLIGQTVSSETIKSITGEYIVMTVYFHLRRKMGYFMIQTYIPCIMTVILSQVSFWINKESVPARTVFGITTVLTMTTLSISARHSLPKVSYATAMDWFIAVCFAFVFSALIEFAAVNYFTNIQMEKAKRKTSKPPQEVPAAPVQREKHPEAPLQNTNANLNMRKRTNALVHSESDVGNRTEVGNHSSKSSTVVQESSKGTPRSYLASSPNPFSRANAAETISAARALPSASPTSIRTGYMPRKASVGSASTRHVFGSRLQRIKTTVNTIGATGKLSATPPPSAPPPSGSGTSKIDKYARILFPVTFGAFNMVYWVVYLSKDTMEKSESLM
# GABAA receptors comprising α4 and δ subunits, sequence (O14764 25-452): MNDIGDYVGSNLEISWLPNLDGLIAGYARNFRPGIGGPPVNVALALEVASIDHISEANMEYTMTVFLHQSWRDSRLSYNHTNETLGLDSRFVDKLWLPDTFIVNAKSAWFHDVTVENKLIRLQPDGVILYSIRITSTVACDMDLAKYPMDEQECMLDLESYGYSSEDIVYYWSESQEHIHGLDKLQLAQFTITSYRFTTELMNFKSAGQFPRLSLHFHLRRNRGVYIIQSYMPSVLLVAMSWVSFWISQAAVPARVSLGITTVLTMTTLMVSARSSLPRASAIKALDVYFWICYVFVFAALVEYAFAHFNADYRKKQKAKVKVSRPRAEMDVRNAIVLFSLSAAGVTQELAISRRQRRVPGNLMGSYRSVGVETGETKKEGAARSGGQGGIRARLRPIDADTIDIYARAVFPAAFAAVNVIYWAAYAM
# GABAA receptors comprising α4 and δ subunits, sequence (P28472 26-473): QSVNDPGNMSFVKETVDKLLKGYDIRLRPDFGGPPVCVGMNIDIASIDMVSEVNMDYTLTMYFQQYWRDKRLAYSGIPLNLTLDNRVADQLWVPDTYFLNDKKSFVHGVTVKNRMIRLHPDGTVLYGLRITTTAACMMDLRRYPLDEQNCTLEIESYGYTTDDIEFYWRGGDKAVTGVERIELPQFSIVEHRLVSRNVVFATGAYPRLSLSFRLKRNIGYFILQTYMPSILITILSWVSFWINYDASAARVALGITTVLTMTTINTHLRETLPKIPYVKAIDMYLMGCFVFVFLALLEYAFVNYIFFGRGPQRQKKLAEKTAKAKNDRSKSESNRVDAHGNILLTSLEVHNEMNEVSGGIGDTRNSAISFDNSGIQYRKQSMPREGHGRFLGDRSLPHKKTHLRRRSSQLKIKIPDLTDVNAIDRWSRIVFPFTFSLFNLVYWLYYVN
smiles,measurement,setting,value
"Oc1noc2c1CCNC2 [Gaboxadol monohydrate of form II, 4,5,6,7-tetrahydroisoxazolo[5,4-c]pyridin-3-ol]",thermodynamic stability relative to the other polymorph,[1],thermodynamically more stable than the monohydrate of form I
same,thermal profile,[2],safer thermal profile than the anhydrous form II
"Oc1noc2c1CCNC2 [anhydrate of form I, 4,5,6,7-tetrahydroisoxazolo[5,4-c]pyridin-3-ol]",relative humidity at which the anhydrate reverts to the monohydrate,[3],70 % RH
"Oc1noc2c1CCNC2 [anhydrate of form II, 4,5,6,7-tetrahydroisoxazolo[5,4-c]pyridin-3-ol]",thermodynamic stability relative to the other polymorph,[1]; listed as gaboxadol anhydrate of form II,more stable than the anhydrate of form I
same,relative humidity at which the anhydrate reverts to the monohydrate,[3],90 % RH
"Oc1noc2c1CCNC2 [gaboxadol, 4,5,6,7-tetrahydroisoxazolo[5,4-c]pyridin-3-ol]",agonist potency,[4],particularly potent agonist
